Earlier results as cited in patent US5164490A, “Pneumocystis carinii dihydrofolate reductase gene and methods for its use” (The Regents of the University of California, priority 1989, dated 1992).

System: P. carinii
Conditions: trimethoprim alone

COc1cc(Cc2cnc(N)nc2N)cc(OC)c1OC [trimethoprim]
efficacy in the rat model of P. carinii infection: lack of efficacy
